Measured values reported in patent US20190321431A1, “PREPARATION AND APPLICATION OF Syzygium zeylanicum L. EXTRACT” (Tamkang University, priority 2018, published 2019).

Key:
[1] = target: S. cerevisiae alpha-glucosidase (Saccharomyces cerevisiae, UniProt P53341); assay type: biochemical
Experimental: (§1) The test steps of this example are as follows. Firstly, the Syzygium zeylanicum L. extract was mixed a buffer (potassium phosphate buffer) with 1:9 volume to produce a Syzygium zeylanicum L. extract solution. The Syzygium zeylanicum L. extract solution and alpha-glucosidase (enzyme) were mixed into the buffer at a volume ratio of 1:1. In this example, 15 μl extract solution and the enzyme were separately mixed into 100 μl buffer at 37° C. for 20 minutes. Then, 50 μl matrix p-nitrophenyl glucopyranoside (pNPG) was added at 37° C. for 40 minutes; then 100 μl, 1 mol/L of Na2CO3 was added to stop the reaction. Finally, the absorbance of OD 410 nm was measured, and calculated the inhibition activity of alpha-glucosidase. The above experimental steps was the subsequent enzyme activity test method of the present invention, and only different conditions, such as extraction solvent, reaction temperature or pH were changed.
(§2) The enzyme activity inhibition test of Example 2 was used in this example. […] The enzymes were S. cerevisiae alpha-glucosidase, rat alpha-glucosidase, B. stearothermophilus alpha-glucoside), porcine pancreatic alpha-amylase, B. subtilis alpha-amylase, and human saliva alpha-amylase.

[2] = target: T1, Porcine pancreatic alpha-amylase (Sus scrofa, UniProt P00690); assay: Enzyme activity inhibition test, porcine pancreatic alpha-amylase; assay type: biochemical
T1 sequence (P00690 16-511): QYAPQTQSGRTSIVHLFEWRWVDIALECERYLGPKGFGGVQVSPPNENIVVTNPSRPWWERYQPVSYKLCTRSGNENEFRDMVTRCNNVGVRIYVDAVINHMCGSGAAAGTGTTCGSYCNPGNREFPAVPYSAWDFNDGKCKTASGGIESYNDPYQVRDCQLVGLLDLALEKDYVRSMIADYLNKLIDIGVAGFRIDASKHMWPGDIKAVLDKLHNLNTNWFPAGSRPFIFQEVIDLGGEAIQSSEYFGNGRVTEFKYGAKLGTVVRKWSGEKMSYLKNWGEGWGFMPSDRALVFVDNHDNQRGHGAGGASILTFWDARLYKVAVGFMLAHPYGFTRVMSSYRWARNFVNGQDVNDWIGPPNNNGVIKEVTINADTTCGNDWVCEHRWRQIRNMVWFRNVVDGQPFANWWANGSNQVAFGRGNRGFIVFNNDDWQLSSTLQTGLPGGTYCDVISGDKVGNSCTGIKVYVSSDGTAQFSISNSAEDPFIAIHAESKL
Experimental: as §1, §2

Chain of S. cerevisiae alpha-glucosidase (P53341 whole entry): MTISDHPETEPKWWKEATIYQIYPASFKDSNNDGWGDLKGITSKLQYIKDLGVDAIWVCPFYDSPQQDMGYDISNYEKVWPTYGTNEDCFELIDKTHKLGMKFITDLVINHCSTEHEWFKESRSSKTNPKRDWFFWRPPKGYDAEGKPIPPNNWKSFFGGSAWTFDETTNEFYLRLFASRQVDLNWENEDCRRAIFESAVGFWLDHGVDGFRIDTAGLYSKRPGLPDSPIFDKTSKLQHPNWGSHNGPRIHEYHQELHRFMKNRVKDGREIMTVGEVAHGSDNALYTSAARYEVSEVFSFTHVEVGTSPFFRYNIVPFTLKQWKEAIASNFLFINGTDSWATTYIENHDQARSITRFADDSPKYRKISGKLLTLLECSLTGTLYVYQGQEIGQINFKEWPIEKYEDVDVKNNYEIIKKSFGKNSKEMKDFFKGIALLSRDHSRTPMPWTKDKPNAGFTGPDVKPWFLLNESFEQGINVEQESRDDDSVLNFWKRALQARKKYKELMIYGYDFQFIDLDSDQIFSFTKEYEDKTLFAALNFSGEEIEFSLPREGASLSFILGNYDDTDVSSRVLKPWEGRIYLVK

C[C@H]1O[C@H](O[C@H]2[C@H](O)[C@@H](O)[C@@H](O[C@H]3[C@H](O)[C@@H](O)C(O)O[C@@H]3CO)O[C@@H]2CO)[C@H](O)[C@@H](O)[C@@H]1N[C@H]1C=C(CO)[C@@H](O)[C@H](O)[C@H]1O (some centres unmarked) [Acarbose]
Maximum Inhibitory Activity [1]: 64 ± 2.3%
Maximum Inhibitory Activity [2]: 91 ± 2.5%
